Data: patent publication US6645957B2, “Cyclic amide compound” (Kowa Co., Ltd., priority 1998, dated 2003)
Where a name gives a salt, the structure may show the parent alone.

tested on: production of IgE antibody; test: Evaluation of inhibitory effect on production of IgE antibody (mouse splenic B cells, LPS + IL-4, ELISA); format: cell-based; conditions: B-cell, 168 h; test agent 10^−6 M; mouse (Balb/C) B cells cultured with LPS then mouse IL-4 for 7 days; IgE in culture supernatant by ELISA
Protocol: A spleen was enucleated from a mouse (Balb/C, male, aged 8 weeks) and shredded in 0.3% BSA/HBSS to prepare single cells by means of a 200-mesh screen. Further, the single cells were hemolyzed by 0.75% ammonium chloride-17 mM Tris solution to prepare a splenocyte suspension (1×10^7/ml) using RPMI 1640 medium/25 mM HEPES/0.3% BSA. After the suspension was reacted with a rat anti-mouse Thy-1,2 monoclonal antibody (product of Cedarlane Co.) at 4° C. for 1 hour, the reaction mixture was centrifuged, and the sediment cells were suspended again (1×10^7/ml, RPMI/HEPES/BSA). After the suspension was then reacted with a low-cytotoxic rabbit complement (product of Cedarlane Co.) at 37° C. for 1 hour, killed cells were removed by specific gravity centrifugation using lympholyte M (product of Cedarlane Co.) to obtain a B cell fraction as viable cells.
After B cells (10^5/0.2 ml/well) were cultured for a day together with LPS (E. coli 026:B6, product of DIFCO Co.) using a 96-well plate, mouse IL-4 (product of Genzyme Co.) was added to conduct culture further for 7 days.
Each test agent was added on the first day of the culture, and the amount of IgE in a culture supernatant was measured by ELISA after the culture, thereby calculating out the inhibitory effect of the agent on the production of an IgE antibody.

Compound	inhibition at 1 µM
COc1cc(/C=C/C=C/C(=O)N2CCN(CCCN3CCN(C(=O)/C=C/C=C/c4cc(OC)c(OC)c(OC)c4)CC3)CC2)cc(OC)c1OC [Example 3, 1,3-bis[4-[(E,E)-5-(3,4,5-Trimethoxyphenyl)-2,4-pentadienoyl]-1-piperazinyl]propane Dihydrochloride]	100%
COc1cc(-c2ccc(C(=O)N3CCN(CCCN4CCN(C(=O)c5ccc(-c6cc(OC)c(OC)c(OC)c6)cc5)CC4)CC3)cc2)cc(OC)c1OC [Example 5, 1,3-bis[4-[4-(3,4,5-Trimethoxyphenyl)-benzoyl]-1-piperazinyl]propane Dihydrochloride]	95%
COc1cc(C#C/C=C/C(=O)N2CCN(CCCN3CCN(C(=O)/C=C/C#Cc4cc(OC)c(OC)c(OC)c4)CC3)CC2)cc(OC)c1OC [Example 6, 1,3-bis[4-[(E)-5-(3,4,5-Trimethoxyphenyl)-2-penten-4-ynoyl]-1-piperazinyl]propane Dihydrochloride]	95%
CC(C)(C)c1ccc(/C=C/C=C/C(=O)N2CCN(CCCCCCCCN3CCN(C(=O)/C=C/C=C/c4ccc(C(C)(C)C)cc4)CC3)CC2)cc1 [Example 12, 1,8-bis[4-[(E,E)-5-(4-tert-Butylphenyl)-2,4-pentadienoyl]-1-piperazinyl]octane Dihydrochloride]	90%
CSc1ncccc1/C=C/C=C/C(=O)N1CCN(CCCCCCCCN2CCN(C(=O)/C=C/C=C/c3cccnc3SC)CC2)CC1 [Example 13, 1,8-bis[4-[(E,E)-5-(2-Methylthio-3-pyridyl)-2,4-pentadienoyl]-1-piperazinyl]octane Dihydrochloride]	95%
COc1cc(-c2ccc(C(=O)N3CCN(Cc4ccc(CN5CCN(C(=O)c6ccc(-c7cc(OC)c(OC)c(OC)c7)cc6)CC5)cc4)CC3)cc2)cc(OC)c1OC [Example 16, 1,4-bis[[4-[4-(3,4,5-Trimethoxyphenyl)benzoyl]-1-piperazinyl]methyl]benzene Dihydrochloride]	65%
O=C(/C=C/c1ccc2ccccc2c1)N1CCN(Cc2cccc(CN3CCN(C(=O)/C=C/c4ccc5ccccc5c4)CC3)n2)CC1 [Example 20, 2,6-bis[[4-[(E)-3-(2-Naphthyl)-2-propenoyl]-1-piperazinyl]methyl]pyridine]	75%
COc1cc(-c2ccc(C(=O)N3CCCN(CCCN4CCCN(C(=O)c5ccc(-c6cc(OC)c(OC)c(OC)c6)cc5)CC4)CC3)cc2)cc(OC)c1OC [Example 23, 1,1′-Trimethylenedi[4-[4-(3,4,5-trimethoxyphenyl)benzoyl]hexahydro-1,4-diazepine]dihydrochloride]	85%
COc1cc2c(cc1OC)C(C)(C)C(/C=C/C(=O)N1CCC(CCCC3CCN(C(=O)/C=C/C4=Cc5cc(OC)c(OC)cc5C4(C)C)CC3)CC1)=C2 [Example 27, 1,3-bis[1-[(E)-3-(5,6-Dimethoxy-1,1-dimethyl-2-indenyl)-2-propenoyl]-4-piperidinyl]propane]	100%
COc1cc(-c2cc(C(=O)N3CCC(CC(CC4CCN(C(=O)c5ccc(C)c(-c6cc(OC)c(OC)c(OC)c6)c5)CC4)N(C)C)CC3)ccc2C)cc(OC)c1OC [Example 30, 1,3-bis[1-[4-Methyl-3-(3,4,5-trimethoxyphenyl)benzoyl]-4-piperidinyl]-2-(dimethylamino)propane Hydrochloride]	100%
COc1cc(C#C/C=C/C(=O)N2CCC(CC(CC3CCN(C(=O)/C=C/C#Cc4cc(OC)c(OC)c(OC)c4)CC3)CN(C)C)CC2)cc(OC)c1OC [Example 33, 1,3-bis[1-[(E)-5-(3,4,5-Trimethoxyphenyl)-2-penten-4-ynoyl]-4-piperidinyl]-2-[(dimethylamino)methyl]propane Hydrochloride]	100%
COc1cc2ccc(/C=C/C(=O)N3CCC(CN(C)CC4CCN(C(=O)/C=C/c5ccc6cc(OC)c(OC)c(OC)c6c5)CC4)CC3)cc2c(OC)c1OC [Example 36, N,N-bis[[1-[(E)-3-(6,7,8-Trimethoxy-2-naphthyl)-2-propenoyl]-4-piperidinyl]methyl]methylamine Hydrochloride]	60%
COc1cc(-c2ccc(C(=O)N3CCC(N(C)CCN(C)C4CCN(C(=O)c5ccc(-c6cc(OC)c(OC)c(OC)c6)cc5)CC4)CC3)cc2)cc(OC)c1OC [Example 37, N,N′-bis[1-[4-(3,4,5-Trimethoxyphenyl)benzoyl]-4-piperidinyl]-N,N′-dimethylethylenediamine Dihydrochloride]	100%
COc1ccc(C(=O)N2CCC(CN3CCN(CC4CCN(C(=O)c5ccc(OC)c(-c6cc(OC)c(OC)c(OC)c6)c5)CC4)CC3)CC2)cc1-c1cc(OC)c(OC)c(OC)c1 [Example 40, 1,4-bis[[1-[4-Methoxy-3-(3,4,5-trimethoxyphenyl)benzoyl]-4-piperidinyl]methyl]piperazine Dihydrochloride]	75%
